The data set is described as follows: Acute Toxic characters (Mouse LD50). Type of data set: in vivo. The note with it: HCl salt; for Mouse LD50: female; for LD50: mouse, in vivo, male.
Setting [1] is: ip, Intraperitoneal Administration.
[2] abbreviates: sc, Subcutaneous Administration.

Bounds are passed on as bounds.

In the case of `C[C@@H](O)[C@H](NC(=O)[C@@H](CCCN)NC(=O)[C@H](CC(O)CNC(=N)N)NC(=O)[C@@H](N)CCCNC(=N)N)C(=O)N[C@H](CCCN)C(=O)N[C@@H](CC(O)CNC(=N)N)C(=O)N[C@H](Cc1ccc(O)cc1)C(=O)O` (single isomer, unassigned) [L-ARG--L-(ARG(OH)--D-ORN--L-THR--D-ORN--L-ARG(OH)--D-TYR], the “Mouse LD50” value (Intraperitoneal Administration) lay in the range of 43.2 to 57.2 mg/kg, the “Mouse LD50” value (Intravenous Administration) is 24.1 to 34.8 mg/kg, the “Mouse LD50” value (Oral Administration) fell in the range of 2400 to 3000 mg/kg and the “Mouse LD50” value (Subcutaneous Administration) lay within 104 to 125 mg/kg. The LD50 runs as follows: under setting [1], 43.2 to 57.2 mg/kg; under setting [2], 86.8 to 104 mg/kg; (Intravenous Administration) 24.1 to 34.8 mg/kg; (Oral Administration) 2400 to 3000 mg/kg.
Consider `C[C@@H](O)[C@H](NC(=O)[C@@H](CCCN)NC(=O)[C@H](CC(O)CNC(=N)N)NC(=O)[C@@H](N)CCCNC(=N)N)C(=O)N[C@H](CCCN)C(=O)N[C@@H](CCCCN)C(=O)N[C@H](Cc1ccc(O)cc1)C(=O)O` (single isomer, unassigned) [L-ARG--L-ARG(OH)--D-ORN--L-THR--D-ORN--L-Lys--D-TYR], for which the “Mouse LD50” value runs as follows: (Intraperitoneal Administration) “above 300 mg/kg”; (Intravenous Administration) 144 to 1728 mg/kg; (Oral Administration) “above 6000 mg/kg”; (Subcutaneous Administration) at least 320 mg/kg. In addition, the LD50 was above 300 mg/kg under setting [1], at least 320 mg/kg under setting [2], 120 to 144 mg/kg (Intravenous Administration) and above 6000 mg/kg (Oral Administration).

What is called LD50 is the dose at which mortality reaches 50%.

The record behind these values is patent US4221705A, “Novel peptide type antibiotic and the process for the production thereof” (priority 1977, dated 1980).
